Test results taken from ChEMBL document CHEMBL1129197, “A rapid synthesis of some 5-amino- nucleosides and nucleotides as potential antiviral compounds” (Bioorg Med Chem Lett, 1996).

How the values were obtained:
[1] = Ratio of CC50 to EC50 against HIV-1/C8166 cells was evaluated; assay type: functional
[2] = system: C8166; experiment: Concentration which reduces the viability of uninfected C8166 cells by 50%; assay type: functional; conditions: Homo sapiens
[3] = system: C8166; experiment: Compound was evaluated for inhibitory activity against HIV-1 infected C8166 cells.; assay type: functional, cell-based; conditions: Homo sapiens

Row | SMILES | Selectivity [1] | CC50 [2] | EC50 [3]
1 | Cc1cn(C2CC(N=[N+]=[N-])C(CNP(=O)(OCC(Cl)(Cl)Cl)OCC(Cl)(Cl)Cl)O2)c(=O)[nH]c1=O (centres undefined) | 3.3 | 100 µM | 30 µM
2 | Cc1cn(C2CC(N=[N+]=[N-])C(CN)O2)c(=O)[nH]c1=O (centres undefined) | >25 | > 1000 µM | 40 µM
3 | Cc1cn2c(nc1=O)OC1CC2OC1CN1C(=O)c2ccccc2C1=O (centres undefined) | >2.5 | > 1000 µM | 400 µM
4 | Cc1cn([C@H]2C[C@H](N=[N+]=[N-])[C@@H](CO)O2)c(=O)[nH]c1=O [ZIDOVUDINE] | 62500 | > 1000 µM | 
5 | Cc1cn(C2CC(N=[N+]=[N-])C(CN3C(=O)c4ccccc4C3=O)O2)c(=O)[nH]c1=O (centres undefined) | 10 | 1000 µM | 100 µM
